For the first series, the system named is Leishmania donovani. In words: Antileishmanial activity against Leishmania donovani 9515 (MHOM/IN/95/9151) promastigote incubated for 48 hrs by resazurin dye based plate reader assay. The class given is functional, organism-based.
Conditions: not given
Background: The colour change of resazurin is a common sign of viable cells or microbes.
In the case of `C#CCn1cc(/C=N\N=C\c2cccs2)c2cc([N+](=O)[O-])ccc21`, the midpoint of inhibition, the IC50, lay at 7.02 µM.
On the same count and under the same terms, in the case of `C#CCn1cc(/C=N\N=C\C2CCCCC2)c2cc([N+](=O)[O-])ccc21` it was above 10 µM.

System in another series: not listed separately
Kind of series: Cytotoxicity against human […]-differentiated THP-1 cells incubated for 72 hrs by resazurin dye based assay.
Conditions: not given
The format is toxicity, cell-based.
As to `C#CCn1cc(/C=N\N=C\c2cccs2)c2cc([N+](=O)[O-])ccc21`, the midpoint of inhibition, the IC50 at 72 h, lay at 16.6 µM.
Same read-out and setting: the figure for `C#CCn1cc(/C=N\N=C\C2CCCCC2)c2cc([N+](=O)[O-])ccc21` is 52.9 µM.

For another series, the system named is Trypanosoma brucei brucei. Kind of series: Trypanocidal activity against Trypanosoma brucei brucei GUTat3.1 incubated for 72 hrs by CellTiter-Glo reagent based […] analysis. The class given is functional, organism-based. The note with it: GUTat3.1, 72 h.
As for `C#CCn1cc(/C=N\N=C\c2cccs2)c2cc([N+](=O)[O-])ccc21`, the IC50 (in general, the midpoint of a concentration-inhibition curve) was 21.4 µM.
On the same count and under the same terms, in the case of `C#CCn1cc(/C=N\N=C\C2CCCCC2)c2cc([N+](=O)[O-])ccc21` it was 18.6 µM.

System in a further series: not listed separately
In words: Selectivity index, ratio of CC50 for MDBK to IC50 for Trypanosoma brucei gambiense IL1922. The format is toxicity, cell-based. The settings on record: cattle, MDBK cells; read-out: Ratio CC50/IC50.
Consider `C#CCn1cc(/C=N\N=C\c2cccs2)c2cc([N+](=O)[O-])ccc21`, for which the selectivity ratio came to 20.2.
On the same count and under the same terms, the figure for `C#CCn1cc(/C=N\N=C\C2CCCCC2)c2cc([N+](=O)[O-])ccc21` is above 18.4.

System in another series: not listed separately
Kind of series: Cytotoxicity against MDBK cells incubated for 72 hrs by CCK8 assay. The class given is toxicity, cell-based, Bos taurus. The note with it: cattle, MDBK cells. Background: Formazan colour is commonly taken as a measure of viable cells.
For the compound `C#CCn1cc(/C=N\N=C\c2cccs2)c2cc([N+](=O)[O-])ccc21`, the CC50 (as a rule, the concentration giving 50% cytotoxicity) at 72 h was above 297 µM.
Compound `C#CCn1cc(/C=N\N=C\C2CCCCC2)c2cc([N+](=O)[O-])ccc21` came in with a CC50 at 72 h above 297 µM.

System in a further series: not listed separately
In words: Selectivity index, ratio of IC50 for human THP-1 cells to IC50 for leishmanicidal activity against Leishmania donovani 9515 (MHOM/IN/95/9151) amastigote. The format is toxicity, cell-based. The settings on record: read-out: Ratio IC50.
Consider `C#CCn1cc(/C=N\N=C\c2cccs2)c2cc([N+](=O)[O-])ccc21`, for which the selectivity ratio was found to be 25.

The test system of another series is Trypanosoma equiperdum. In words: Trypanocidal activity against Trypanosoma equiperdum IVM-t1 incubated for 72 hrs by CellTiter-Glo reagent based […] analysis. The note with it: IVM-t1, 72 h. The format is functional, organism-based.
`C#CCn1cc(/C=N\N=C\c2cccs2)c2cc([N+](=O)[O-])ccc21` had an IC50 of 18.4 µM.
The same measure, in the same setting: in the case of `C#CCn1cc(/C=N\N=C\C2CCCCC2)c2cc([N+](=O)[O-])ccc21` it was 21.8 µM.

System in the next series: not listed separately
Kind of series: Selectivity index, ratio of CC50 for MDBK to IC50 for Trypanosoma congolense IL3000. The note with it: cattle, MDBK cells; read-out: Ratio CC50/IC50. The class given is toxicity, cell-based.
In the case of `C#CCn1cc(/C=N\N=C\c2cccs2)c2cc([N+](=O)[O-])ccc21`, the selectivity ratio is above 75.4.

Another series concerns Leishmania donovani. In words: Leishmanicidal activity against Leishmania donovani 9515 (MHOM/IN/95/9151) amastigote infected in THP-1 cells incubated for 72 hrs by resazurin dye based plate reader assay. The format is functional, organism-based. The note with it: THP-1, 72 h.
As to `C#CCn1cc(/C=N\N=C\c2cccs2)c2cc([N+](=O)[O-])ccc21`, the IC50 was found to be 0.67 µM.
In turn, `C#CCn1cc(/C=N\N=C\C2CCCCC2)c2cc([N+](=O)[O-])ccc21` showed an IC50 above 10 µM.

System in another series: not listed separately
Kind of series: Selectivity index, ratio of CC50 for MDBK to IC50 for Trypanosoma brucei brucei GUTat3.1. The class given is toxicity, cell-based. The note with it: cattle, MDBK cells; read-out: Ratio CC50/IC50.
Turning to `C#CCn1cc(/C=N\N=C\c2cccs2)c2cc([N+](=O)[O-])ccc21`, the selectivity ratio is above 13.9.
On to `C#CCn1cc(/C=N\N=C\C2CCCCC2)c2cc([N+](=O)[O-])ccc21`, for which the selectivity ratio is above 16.

System in another series: not listed separately
In words: Selectivity index, ratio of CC50 for MDBK to IC50 for Trypanosoma brucei rhodesiense IL1501. The format is toxicity, cell-based. The note with it: cattle, MDBK cells; read-out: Ratio CC50/IC50.
As for `C#CCn1cc(/C=N\N=C\c2cccs2)c2cc([N+](=O)[O-])ccc21`, the selectivity ratio stood at 18.3.
Turning to `C#CCn1cc(/C=N\N=C\C2CCCCC2)c2cc([N+](=O)[O-])ccc21`, the selectivity ratio was above 15.3.

System in the next series: not listed separately
Kind of series: Selectivity index, ratio of CC50 for MDBK to IC50 for Trypanosoma evansi Tansui. The format is toxicity, cell-based. The settings on record: cattle, MDBK cells; read-out: Ratio CC50/IC50.
For the compound `C#CCn1cc(/C=N\N=C\c2cccs2)c2cc([N+](=O)[O-])ccc21`, the selectivity ratio was above 16.1.

System in the next series: not listed separately
In words: Cytotoxicity against green monkey Vero cells incubated for 48 hrs by resazurin dye based assay. The format is toxicity, cell-based. The settings on record: African green monkey (Chlorocebus sabaeus).
`C#CCn1cc(/C=N\N=C\c2cccs2)c2cc([N+](=O)[O-])ccc21` displayed an IC50 at 48 h of 10.8 µM.
On the same count and under the same terms, the figure for `C#CCn1cc(/C=N\N=C\C2CCCCC2)c2cc([N+](=O)[O-])ccc21` is above 100 µM.

For another series, the system named is Trypanosoma brucei rhodesiense. In words: Trypanocidal activity against Trypanosoma brucei rhodesiense IL1501 incubated for 72 hrs by CellTiter-Glo reagent based […] analysis. The note with it: IL1501, 72 h. The class given is functional, organism-based. For orientation: In ATP-based viability assays light output follows the ATP content of the culture.
For `C#CCn1cc(/C=N\N=C\c2cccs2)c2cc([N+](=O)[O-])ccc21`, the IC50 came out at 16.3 µM.
On the same count and under the same terms, the figure for `C#CCn1cc(/C=N\N=C\C2CCCCC2)c2cc([N+](=O)[O-])ccc21` is 19.4 µM.

System in a further series: not listed separately
Kind of series: Selectivity index, ratio of CC50 for MDBK to IC50 for Trypanosoma equiperdum IVM-t1. The class given is toxicity, cell-based. The settings on record: cattle, MDBK cells; read-out: Ratio CC50/IC50.
With `C#CCn1cc(/C=N\N=C\c2cccs2)c2cc([N+](=O)[O-])ccc21`, the selectivity ratio is above 16.2.
The same measure, in the same setting: the figure for `C#CCn1cc(/C=N\N=C\C2CCCCC2)c2cc([N+](=O)[O-])ccc21` is above 13.7.

System in the next series: not listed separately
In words: Selectivity index, ratio of IC50 for african green monkey Vero cells to IC50 for static antileishmanial activity against Leishmania donovani 9515 (MHOM/IN/95/9151) amastigote. The class given is toxicity, cell-based. The settings on record: read-out: Ratio IC50.
As for `C#CCn1cc(/C=N\N=C\c2cccs2)c2cc([N+](=O)[O-])ccc21`, the selectivity ratio was 12.
In the case of `C#CCn1cc(/C=N\N=C\C2CCCCC2)c2cc([N+](=O)[O-])ccc21`, the selectivity ratio is above 35.

The subject of the next series is Trypanosoma evansi. Kind of series: Trypanocidal activity against Trypanosoma evansi Tansui incubated for 72 hrs by CellTiter-Glo reagent based […] analysis. The class given is functional, organism-based.
Conditions: not given
Turning to `C#CCn1cc(/C=N\N=C\c2cccs2)c2cc([N+](=O)[O-])ccc21`, the IC50 is 18.5 µM.
Same read-out and setting: the figure for `C#CCn1cc(/C=N\N=C\C2CCCCC2)c2cc([N+](=O)[O-])ccc21` is above 74.3 µM.

System in another series: not listed separately
Kind of series: Selectivity index, ratio of IC50 for african green monkey Vero cells to IC50 for leishmanicidal activity against Leishmania donovani 9515 (MHOM/IN/95/9151) amastigote. The format is toxicity, cell-based. The settings on record: read-out: Ratio IC50.
For the compound `C#CCn1cc(/C=N\N=C\c2cccs2)c2cc([N+](=O)[O-])ccc21`, the selectivity ratio was 16.

System in a further series: not listed separately
Kind of series: Selectivity index, ratio of IC50 for human THP-1 cells to IC50 for static antileishmanial activity against Leishmania donovani 9515 (MHOM/IN/95/9151) amastigote. The class given is toxicity, cell-based. The note with it: read-out: Ratio IC50.
In the case of `C#CCn1cc(/C=N\N=C\c2cccs2)c2cc([N+](=O)[O-])ccc21`, the selectivity ratio was found to be 16.
The same measure, in the same setting: in the case of `C#CCn1cc(/C=N\N=C\C2CCCCC2)c2cc([N+](=O)[O-])ccc21` it was 19.

For another series, the system named is Trypanosoma congolense. Kind of series: Trypanocidal activity against Trypanosoma congolense IL3000 incubated for 72 hrs by CellTiter-Glo reagent based […] analysis. The class given is functional, organism-based. The note with it: IL3000, 72 h.
In turn, `C#CCn1cc(/C=N\N=C\c2cccs2)c2cc([N+](=O)[O-])ccc21` registered an IC50 of 3.94 µM.
The same measure, in the same setting: the figure for `C#CCn1cc(/C=N\N=C\C2CCCCC2)c2cc([N+](=O)[O-])ccc21` is above 74.3 µM.

A further series deals with Trypanosoma brucei gambiense. In words: Trypanocidal activity against Trypanosoma brucei gambiense IL1922 incubated for 72 hrs by CellTiter-Glo reagent based […] analysis. The class given is functional, organism-based. The note with it: IL1922, 72 h.
In the case of `C#CCn1cc(/C=N\N=C\c2cccs2)c2cc([N+](=O)[O-])ccc21`, the IC50 was 14.7 µM.
Compound `C#CCn1cc(/C=N\N=C\C2CCCCC2)c2cc([N+](=O)[O-])ccc21` gave an IC50 of 16.1 µM.

In a further series the test system is Leishmania donovani. In words: Antileishmanial activity against Leishmania donovani 9515 (MHOM/IN/95/9151) amastigote infected in THP-1 cells assessed as inhibition of parasite growth incubated for 72 hrs by resazurin dye based plate reader assay. The format is functional, organism-based. The settings on record: THP-1, 72 h.
`C#CCn1cc(/C=N\N=C\c2cccs2)c2cc([N+](=O)[O-])ccc21`: the IC50 was determined as 0.89 µM.
The same measure, in the same setting: the figure for `C#CCn1cc(/C=N\N=C\C2CCCCC2)c2cc([N+](=O)[O-])ccc21` is 2.85 µM.

System in a further series: not listed separately
In words: Selectivity index, ratio of IC50 for human THP-1 cells to IC50 for Leishmania donovani 9515 (MHOM/IN/95/9151) promastigote. The format is toxicity, cell-based. The settings on record: read-out: Ratio IC50.
As for `C#CCn1cc(/C=N\N=C\c2cccs2)c2cc([N+](=O)[O-])ccc21`, the selectivity ratio was 2.

System in the next series: not listed separately
In words: Selectivity index, ratio of IC50 for african green monkey Vero cells to IC50 for Leishmania donovani 9515 (MHOM/IN/95/9151) promastigote. The class given is toxicity, cell-based. The note with it: read-out: Ratio IC50.
With `C#CCn1cc(/C=N\N=C\c2cccs2)c2cc([N+](=O)[O-])ccc21`, the selectivity ratio was 2.

(Values after ChEMBL document CHEMBL6083269, “Design, synthesis, in vitro and in vivo trypanosomaticidal efficacy of novel 5-nitroindolylazines” (Eur J Med Chem, 2024).)
